# Reference: US9427455B2, “Use of the pat nanopeptide in the treatment of autoimmune diseases” (CLL PHARMA, priority 2008, dated 2016)
# Tests used:
# Type in all cases: in vivo
# [1] = tested on: arthritic rats of OFA (SD) strain; assay: Arthritis induced by Freund's adjuvant (Mycobacterium butyricum) in the rat; settings: for volume of the leg: 5 times per week during 3 weeks, from Day 14 until Day 21, FIG. 4; for hypersensitivity measured by the plantar test: Day 16, equivalent to non-arthritic reference group, FIG. 6; for erythrocyte sedimentation rate (ESR): FIG. 7; for macroscopic clinical score: FIG. 5
# Experimental: We used the model of arthritis induced by Freund' adjuvant as described in the article of Milan et al., J Neurosci 1986; 6: 899-906. The rats are administered with Mycobacterium butyricum develop usually a severe polyarthritis which resembles to that in human. Rats of OFA (SD) strain (Oncins France Strain A) weighing approximately 200 g received an […] of a 10 mg/ml Mycobacterium butyricum solution at the articulation of the right ankle. For all the measured parameters, the rats were divided into 5 groups (8 rats/group) in the following way: • reference group: the rats received a paraffin injection instead of the solution of Mycobacterium butyricum (no induced arthritis) then receive an intraperitoneal injection of saline solution; • arthritic group+injection of saline solution; • arthritic group+intraperitoneal injection of 3 mg/kg indomethacin; the indomethacin being a NSAID classically used as reference in this kind of test; • arthritic group+intraperitoneal injection of 0.4 […]; […] The products are administered 5 times per week during 3 weeks. At the beginning of the experimentation (day 0), one determines the initial values for the different parameters (volume of the leg, macroscopic clinical score, sedimentation test and hypersensitivity). During the experiment, several parameters are measured: • the volume of the leg (“paw latency duration”); • the globular sedimentation test (“Erythrocyte Sedimentation rate”); • the macroscopic score: • “0” means that no sign of arthritis was detected; • “1” means that a swelling or an inflammation was detected on a leg; • “2” means that a swelling or an inflammation was detected on two legs; • “3” means that a swelling or an inflammation was detected on at lest 3 legs; • “4” means that a swelling or an inflammation was detected on the 4 legs. • hypersensitivity according to the plantar test: carried out according to Yukinori Nagakura and al, Allodynia and hyperalgesia in adjuvant-induced arthritic rats: time course of progression and efficacy of analgesics, JPET 306: 490-497, 2003, or in Andersen M L and al “Evaluation of acute and chronic treatments with Harpagophytum procumbens one Freund's adjuvant-induced arthritis in rats”. J. Ethnopharmacol. 2004 April; 91 (2-3): 325-30; • the erythrocyte sedimentation rate (ESR): the increase in this one generally accompanies the clinical symptoms met in induced arthritis. The ESR is measured in the arthritic rats (at Day 21) 1 hour and 2 hours after the injection of PAT or indomethacin, according to the protocol of Mahajan S G, et al., Protective Effect of Ethanolic Extract of Seeds of Moringa will oleifera Lam. Against Inflammation Associated with Development of Arthritis in Rats. J. Immunotoxicol. 2007 January; 4 (1): 39-47.
# [2] = tested on: C57BL/6J mice with colitis induced by TNBS; assay: TNBS-induced experimental colitis in mice (animal weight, colon inflammation); settings: for effect on animal weight (weight loss induced by TNBS): FIG. 1
# Experimental: The PAT nonapeptide was studied in animal model of experimental colitis. In mice, one of the clearly established IBD colitis models is the one in which the induction is performed by the use of trinitrobenzene sulphonic acid (TNBS). TNBS is a hapten which, when it is administered by intrarectal route, induced a severe colonic transmural inflammation; the induced effects present many similarities with those induced by Crohn's disease (Elson C O et al Experimental models of inflammatory bowel disease. Gastroenterology 2003; 10: 1344-67; Strober W et al., The immunology of mucosal models of inflammation. Annu Rev Immunol 2002; 20: 495-49).
# (§1) Colitis is induced in C57BL/6J mice of 7-8 weeks old after TNBS administration per rectal route according to the protocol described by Sugimoto K. et al (Gastroenterology 2002: 123; 1912-1922). The administration is performed directly in the lumen of the colon (over a 3-4 cm length) by using a 1 ml-syringe and a polyethylene cannula (Intradermic PE-20, Becton Dickinson) of a 100 μl solution containing 2.5 mg of TNBS dissolved beforehand in 50 μl of ethanol. After the administration, the mice are maintained 30 seconds in vertical position.
# The design of the study is the following: • one control batch of 5 mice treated by ethanol/PBS mixture (vol/vol): • one test batch of 10 mice to which TNBS is administered (2.5 mg in 50% ethanol); • one test batch of 10 mice to which TNBS and nonapeptide are administered with the amount of 1 μg/mouse; • one test batch of 10 mice to which TNBS and nonapeptide are administered with the amount of 5, μg/mouse; • one batch of 10 mice to which TNBS and nonapeptide are administered with the amount of 25 μg/mouse.
# The PAT nonapeptide is administered by intraperitoneal route 30 minutes before the TNBS induction of colitis. Several mice (5 of each test batch; 2 of control batch) are sacrificed at day 1 after TNBS induction. The remaining mice (5 of each test batch; 3 of control batch) are sacrificed at day 3 after TNBS induction.
# The animals are weighed every day until the sacrifice.
# As soon as the animals are sacrificed, the colon is sampled and a macroscopic analysis is carried out.
# IL-1β = assay: Expression of IL-1β in colon by quantitative RT-PCR, TNBS colitis mice; settings: 25 μg of PAT; TNBS alone increases almost 50 fold; FIG. 3
# Experimental: as §1, with “position. […]” for “position.”
# (§2) The latter is carried out by denaturation with guanidine thiocyanate; cDNA synthesis is made starting from 1 ng of RNA using a kit (Euromedex). A quantitative PCR is carried out; the reaction is performed in a 25 μl final volume by using SYBR kit (Eurogentec). Stimulation rate is determined for each cytokine compared to reference cDNA which is that corresponding to […] ribosomal phosphoprotein.
# IL-6 = assay: Expression of IL-6 in colon by quantitative RT-PCR, TNBS colitis mice; settings: 25 μg of PAT per mouse; TNBS alone increases around 30 fold; FIG. 3
# Experimental: as §1, with “position. […]” for “position.”
# as §2
# TNF-α = assay: Expression of TNF-α in colon by quantitative RT-PCR, TNBS colitis mice; settings: PAT 25 μg/mouse; TNBS alone increases around 4 fold; FIG. 3
# Experimental: as §1, with “position. […]” for “position.”
# as §2
# IL-10 = assay: Expression of IL-10 in colon by quantitative RT-PCR, TNBS colitis mice; settings: PAT 25 μg/mouse before TNBS; not increased with TNBS alone; FIG. 3
# Experimental: as §1, with “position. […]” for “position.”
# as §2
molecule,measurement,setting,value
"COc1ccc2c(c1)c(CC(=O)O)c(C)n2C(=O)c1ccc(Cl)cc1 [indomethacin, reference compound]",volume of the leg,[1]; indomethacin 3 mg/kg i.p.,notable reduction of inflammation and of the volume of the leg
same,hypersensitivity measured by the plantar test,[1]; indomethacin 3 mg/kg i.p.,hypersensitivity is very reduced
same,erythrocyte sedimentation rate (ESR),"[1]; indomethacin 3 mg/kg i.p., Day 21",reduced in a very important way
same,macroscopic clinical score,"[1]; indomethacin 3 mg/kg i.p., compared to arthritic rats given saline solution",significant reduction in the macroscopic score
H EAKSQGGSD-NH2 (H-EAKSQGGSD-NH2) [PAT nonapeptide],effect on animal weight (weight loss induced by TNBS),[2]; PAT 1 μg/mouse i.p. 30 minutes before TNBS,do not show a significant effect
same,effect on animal weight (weight loss induced by TNBS),[2]; PAT 5 μg/mouse i.p. 30 minutes before TNBS,do not show a significant effect
same,effect on animal weight (weight loss induced by TNBS),[2]; PAT 25 μg/mouse i.p. 30 minutes before TNBS,allows to limit this weight loss
same,"colon length, on average","[2]; TNBS-PAT treated mice, control mice 7 cm, TNBS-treated mice 5 cm",6.5 cm
same,colon inflammation caused by TNBS rectal injection (macroscopic analysis),"[2]; i.p. 30 minutes before TNBS, dose dependant, maximal effect at 25 μg/mouse, FIG. 2",reduce to a significant extent inflammation
same,IL-1β cytokine expression,IL-1β,decreases to a significant extent
same,IL-6 expression,IL-6,decreases to a significant extent
same,TNF-α expression,TNF-α,the increase is notably reduced
same,increase of IL-10 anti-inflammatory cytokine level,IL-10,more than 3 fold
same,progression of arthritis,"[1]; PAT 0.4 μg/kg (i.p), leg, peripheral hypersensitivity and ESR",reduce very significantly the progression of arthritis
same,efficacy compared with indomethacin 3 mg/kg,"[1]; PAT 0.4 μg/kg (i.p.), a dose 7500 fold lower than indomethacin",at least a similar efficacy
same,volume of the leg,[1]; PAT 0.4 μg/kg i.p.,notable reduction of inflammation and of the volume of the leg
same,hypersensitivity measured by the plantar test,[1]; PAT 0.4 μg/kg i.p.,hypersensitivity is very reduced
same,erythrocyte sedimentation rate (ESR),"[1]; PAT 0.4 μg/kg i.p., Day 21, 1 hour after the injection, compared to indomethacin group, very similar to reference rats",more reduced ESR
same,macroscopic clinical score,"[1]; PAT 0.4 μg/kg i.p., compared to arthritic rats given saline solution",significant reduction in the macroscopic score
same,volume of the leg,[1]; PAT 4 μg/kg i.p.,notable reduction of inflammation and of the volume of the leg
same,hypersensitivity measured by the plantar test,[1]; PAT 4 μg/kg i.p.,hypersensitivity is very reduced
same,erythrocyte sedimentation rate (ESR),"[1]; PAT 4 μg/kg i.p., Day 21",did not have a significant effect on the reduction of ESR
same,macroscopic clinical score,"[1]; PAT 4 μg/kg i.p., compared with 0.4 μg/kg",shows less effects
